Drawing on patent US10206907B2, “Compounds useful for the treatment of degenerative and inflammatory diseases” (GALAPAGOS NV, priority 2008, dated 2019), this text covers IC50 and EC50 for 24 compounds.

Usually IC50 stands for the midpoint of a concentration-inhibition curve. The EC50 is the concentration at which the effect is half-maximal.

Assay [1] addresses Recombinant human JAK1 catalytic domain (Homo sapiens (Human), UniProt P23458). As to the kind of experiment: JAK1 inhibition assay. The class given is biochemical. Conditions: semi-quantitative score. Summed up:
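Radiometric assay read by scintillation counting after phosphoric-acid washes. Percent inhibition calculated from cpm relative to vehicle and 10 μM staurosporine control. IC50 derived from compound dose-dilution series.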

For assay [2], the target named is Recombinant human JAK2 catalytic domain (Homo sapiens (Human), UniProt O60674). Nature of the assay: JAK2 inhibition assay. In kind it is biochemical. Conditions: semi-quantitative score. Summed up: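 Radiometric kinase reactions ran for 90 min at 30 °C and were stopped with phosphoric acid, then washed and counted by scintillation. Percent inhibition was set relative to vehicle and to 10 μM staurosporine background. IC50 was derived from dose-dilution series.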

Assay [3] has as its system JAK-STAT signalling in HeLa cells. Nature of the assay: JAK-STAT signalling assay (OSM-triggered pSTAT1(2)-luciferase reporter in HeLa cells). Conditions: Homo sapiens; HeLa cells, OSM-triggered pSTAT1(2)-luciferase reporter; read-out: STAT signalling EC50. The class given is cell-based. The procedure: HeLa cells were maintained in Dulbecco's Modified Eagle's Medium (DMEM) containing 10% heat inactivated fetal calf serum, 100 U/mL penicillin and 100 μg/mL streptomycin. HeLa cells were used at 70% confluence for transfection. 20,000 cells in 87 μL cell culture medium were transiently transfected with 40 ng pSTAT1(2)-luciferase reporter (Panomics), 8 ng of LacZ reporter as internal control reporter and 52 ng of pBSK using 0.32 μL Jet-PEI (Polyplus) as transfection reagent per well in 96-well plate format. After overnight incubation at 37° C., 10% CO2, transfection medium was removed.
40 μL of cell lysate was used to read β-galactosidase activity by adding 180 μL βGal solution (30 μl ONPG 4 mg/mL+150 μL β-Galactosidase buffer (0.06 M Na2HPO4, 0.04 M NaH2PO4, 1 mM MgCl2)) for 20 min.
Luciferase activity was measured using 40 μL cell lysate plus 40 μl of Steadylite® as described by the manufacturer (Perkin Elmer), on the Envision (Perkin Elmer).
The positive and negative controls were used to calculate z’ and ‘percent inhibition’ (PIN) values.
PIN values were plotted for compounds tested in dose-response and EC50 values were derived.
On the technique in general: A reporter such as luciferase makes a cellular process visible.

Sequence of Recombinant human JAK2 catalytic domain (O60674 808-1132): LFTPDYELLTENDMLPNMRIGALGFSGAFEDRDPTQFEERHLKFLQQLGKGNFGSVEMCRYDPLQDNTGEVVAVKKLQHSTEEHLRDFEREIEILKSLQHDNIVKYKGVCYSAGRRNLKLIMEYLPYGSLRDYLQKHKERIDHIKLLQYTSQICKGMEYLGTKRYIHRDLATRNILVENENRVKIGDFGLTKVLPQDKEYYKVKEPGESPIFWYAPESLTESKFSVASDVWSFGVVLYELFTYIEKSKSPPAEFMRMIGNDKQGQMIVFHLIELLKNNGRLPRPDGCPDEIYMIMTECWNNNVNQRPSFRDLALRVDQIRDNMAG
Sequence of Recombinant human JAK1 catalytic domain (P23458 850-1154): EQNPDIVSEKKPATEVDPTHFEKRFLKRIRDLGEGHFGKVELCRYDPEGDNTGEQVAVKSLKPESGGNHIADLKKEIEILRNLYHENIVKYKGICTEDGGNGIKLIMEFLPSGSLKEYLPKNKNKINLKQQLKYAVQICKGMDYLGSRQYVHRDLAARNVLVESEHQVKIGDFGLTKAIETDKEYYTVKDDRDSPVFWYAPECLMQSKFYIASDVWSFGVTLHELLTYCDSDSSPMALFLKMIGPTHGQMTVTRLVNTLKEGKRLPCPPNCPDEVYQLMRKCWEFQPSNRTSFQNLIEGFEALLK

As to `O=C(Nc1nc2cccc(-c3cccc(OCc4ccccc4)c3)n2n1)C1CC1` [Compound 14, N-(5-(3-(benzyloxy)phenyl)-[1,2,4]triazolo[1,5-a]pyridin-2-yl)cyclopropanecarboxamide], the half-inhibitory concentration (IC50) in assay [1] fell in the range of 0.101 to 0.5 µM; in assay [2] it was 0.501 to 1 µM. The half-maximal effective concentration (EC50) in assay [3] is above 1 µM.
For the compound `O=C(Nc1nc2cccc(-c3ccc(-c4cccs4)cc3)n2n1)C1CC1` [Compound 20, N-(5-(4-(thiophen-2-yl)phenyl)-[1,2,4]triazolo[1,5-a]pyridin-2-yl)cyclopropanecarboxamide], the values for the IC50 in assay [1] and in assay [2] were 0.101 to 0.5 µM and 0.501 to 1 µM, respectively. Besides, in assay [3], the 50% effective concentration (EC50) lay in the range of 0.501 to 1 µM.
As to `N#CC1CCN(Cc2ccc(-c3cccc4nc(NC(=O)C5CC5)nn34)cc2)CC1` [Compound 232, Cyclopropanecarboxylic acid {5-[4-(4-cyano-piperidin-1-ylmethyl)-phenyl]-[1,2,4]triazolo[1,5-a]pyridin-2-yl}-amide], the values for the IC50 in assay [1] and in assay [2] were below 0.1 µM and 0.101 to 0.5 µM, respectively. For the same compound, the EC50 in assay [3] is above 1 µM.
The like results for `CN1CCN(c2ccc(NCc3ccc(-c4cccc5nc(NC(=O)C6CC6)nn45)cc3)cn2)CC1` [Compound 235, Cyclopropanecarboxylic acid [5-(4-{[6-(4-methyl-piperazin-1-yl)-pyridin-3-ylamino]-methyl}-phenyl)-[1,2,4]triazolo[1,5-a]pyridin-2-yl]-amide] were, in that order, below 0.1 µM, 0.101 to 0.5 µM and above 1 µM.
The like results for `N#Cc1ccc(-c2ccc(-c3cccc4nc(NC(=O)C5CC5)nn34)cc2)cn1` [Compound 239, Cyclopropanecarboxylic Acid {5-[4-(6-cyano-pyridin-3-yl)-phenyl]-[1,2,4]triazolo[1,5-a]pyridin-2-yl}-amide] were, in that order, below 0.1 µM, 0.101 to 0.5 µM and above 1 µM.
In the case of `Cc1ccc(C(N)=O)cc1NCc1ccc(-c2cccc3nc(NC(=O)C4CC4)nn23)cc1` [Compound 249], the IC50 in assay [1] was below 0.1 µM. Also, in assay [3], the EC50 is above 1 µM.
The like results for `O=C(NCc1ccc(-c2cccc3nc(NC(=O)C4CC4)nn23)cc1)C1CCC1` [Compound 268, Cyclobutanecarboxylic acid 4-[2-(cyclopropanecarbonyl-amino)-[1,2,4]triazolo[1,5-a]pyridin-5-yl]-benzylamide] were, in that order, below 0.1 µM and above 1 µM.
For the compound `CN(C)C1CCCN(C(=O)c2ccc(-c3cccc4nc(NC(=O)C5CC5)nn34)cc2)C1` (stereo not shown) [Compound 269, Cyclopropanecarboxylic acid {5-[4-(3-dimethylamino-piperidine-1-carbonyl)-phenyl]-[1,2,4]triazolo[1,5-a]pyridin-2-yl}-amide], the figures for the IC50 in assay [1] and in assay [2] were 0.101 to 0.5 µM and above 1 µM, respectively. The EC50 in assay [3] was above 1 µM.
For `O=C(NCc1ccc(-c2cccc3nc(NC(=O)C4CC4)nn23)cc1)C1CC1` [Compound 272, Cyclopropanecarboxylic acid 4-[2-(cyclopropanecarbonyl-amino)-[1,2,4]triazolo[1,5-a]pyridin-5-yl]-benzylamide], the IC50 in assay [1] was below 0.1 µM; in assay [2] it was 0.101 to 0.5 µM. For the same compound, the EC50 in assay [3] is above 1 µM.
The like results for `O=C1CN(C(=O)c2ccc(-c3cccc4nc(NC(=O)C5CC5)nn34)cc2)CCN1` [Compound 277, Cyclopropanecarboxylic acid [5-[4-(3-oxo-piperazine-1-carbonyl)-phenyl]-[1,2,4]triazolo[1,5-a]pyridin-2-yl}-amide] were, in that order, below 0.1 µM, 0.101 to 0.5 µM and above 1 µM.
For `N#Cc1ccc(OC2CN(Cc3ccc(-c4cccc5nc(NC(=O)C6CC6)nn45)cc3)C2)cc1` [Compound 278, Cyclopropanecarboxylic acid (5-{4-[3-(4-cyano-phenoxy)-azetidin-1-ylmethyl]-phenyl}-[1,2,4]triazolo[1,5-a]pyridin-2-yl)-amide], in that order: below 0.1 µM, 0.101 to 0.5 µM and above 1 µM.
On to `COC1CCN(Cc2ccc(-c3cccc4nc(NC(=O)C5CC5)nn34)cc2)CC1` [Compound 281, Cyclopropanecarboxylic acid {5-[4-(4-methoxy-piperidin-1-ylmethyl)-phenyl]-[1,2,4]triazolo[1,5-a]pyridin-2-yl}-amide], for which the IC50 is below 0.1 µM in assay [1] and above 1 µM in assay [2]. In addition, in assay [3], the EC50 was above 1 µM.
For `N#Cc1ccc(COC2CN(c3ccc(-c4cccc5nc(NC(=O)C6CC6)nn45)cc3)C2)cc1` [Compound 284, Cyclopropanecarboxylic acid (5-{4-[3-(4-cyano-benzyloxy)-azetidin-1-yl]-phenyl}-[1,2,4]triazolo[1,5-a]pyridin-2-yl)-amide], the figures for the IC50 in assay [1] and in assay [2] were below 0.1 µM and 0.501 to 1 µM, respectively. The 50% effective concentration (EC50) in assay [3] is above 1 µM.
With `N#CC1CN(c2ccc(-c3cccc4nc(NC(=O)C5CC5)nn34)cc2)C1` [Compound 288, Cyclopropanecarboxylic acid {5-[4-(3-cyano-azetidin-1-yl)-phenyl]-[1,2,4]triazolo[1,5-a]pyridin-2-yl}-amide], the results for the IC50 in assay [1] and in assay [2] were below 0.1 µM and 0.101 to 0.5 µM, respectively. The EC50 in assay [3] was above 1 µM.
As to `COC1CCN(C(=O)c2ccc(-c3cccc4nc(NC(=O)C5CC5)nn34)cc2)CC1` [Compound 293, Cyclopropanecarboxylic acid {5-[4-(4-methoxy-piperidine-1-carbonyl)-phenyl]-[1,2,4]triazolo[1,5-a]pyridin-2-yl}-amide], the IC50 in assay [1] is below 0.1 µM; in assay [2] it was above 1 µM. Further, the EC50 in assay [3] was above 1 µM.
Turning to `N#CC1CN(Cc2ccc(-c3cccc4nc(NC(=O)C5CC5)nn34)cc2)C1` [Compound 303, Cyclopropanecarboxylic acid {5-[4-(3-cyano-azetidin-1-ylmethyl)-phenyl]-[1,2,4]triazolo[1,5-a]pyridin-2-yl}-amide], the values for the IC50 in assay [1] and in assay [2] were below 0.1 µM and 0.101 to 0.5 µM, respectively. Besides, the EC50 in assay [3] lay within 0.501 to 1 µM.
For the compound `CC(C)(C)OC(=O)NC1CCN(Cc2ccc(-c3cccc4nc(NC(=O)C5CC5)nn34)cc2)CC1` [Compound 310], the 50% inhibitory concentration (IC50) was below 0.1 µM in assay [1] and above 1 µM in assay [2]. Further, the EC50 in assay [3] is above 1 µM.
In the case of `O=C(Nc1nc2cccc(-c3ccc(CN4CCCC(O)C4)cc3)n2n1)C1CC1` (stereo not shown) [Compound 313, Cyclopropanecarboxylic acid {5-[4-(3-hydroxy-piperidin-1-ylmethyl)-phenyl]-[1,2,4]triazolo[1,5-a]pyridin-2-yl}-amide], the IC50 was below 0.1 µM in assay [1] and 0.101 to 0.5 µM in assay [2]. In assay [3], the EC50 was above 1 µM.
With `COC1CN(C(=O)Cc2ccc(-c3cccc4nc(NC(=O)C5CC5)nn34)cc2)C1` [Compound 321, Cyclopropanecarboxylic acid (5-{4-[2-(3-methoxy-azetidin-1-yl)-2-oxo-ethyl]-phenyl} - [1,2,4]triazolo[1,5-a]pyridin-2 yl)-amide], the IC50 in assay [1] is below 0.1 µM. For the same compound, the EC50 in assay [3] was above 1 µM.
For the compound `CC(=O)NC1CN(C(=O)Cc2ccc(-c3cccc4nc(NC(=O)C5CC5)nn34)cc2)C1` [Compound 322, Cyclopropanecarboxylic acid (5-{4-[2-(3-acetylamino-azetidin-1-yl)-2-oxo-ethyl]-phenyl}-[1,2,4]triazolo[1,5-a]pyridin-2-yl)-amide], the IC50 in assay [1] and in assay [2] was above 1 µM each time.
As for `CN(C)C(=O)C1CN(C(=O)Cc2ccc(-c3cccc4nc(NC(=O)C5CC5)nn34)cc2)C1` [Compound 324, 1-(2-{4-[2-(Cyclopropanecarbonyl-amino)-[1,2,4]triazolo[1,5-a]pyridin-5-yl]-phenyl}-acetyl)-azetidine-3-carboxylic acid dimethylamide], the IC50 in assay [1] and in assay [2] was above 1 µM throughout.
`O=C(Nc1nc2cccc(-c3ccc(C(=O)N4CC(N5CCOCC5)C4)cc3)n2n1)C1CC1` [Compound 326, Cyclopropanecarboxylic acid {5-[4-(3-morpholin-4-yl-azetidine-1-carbonyl)-phenyl]-[1,2,4]triazolo[1,5-a]pyridin-2-yl}-amide]: the figures for the IC50 in assay [1] and in assay [2] were 0.101 to 0.5 µM and above 1 µM, respectively. Further, the concentration for a half-maximal effect (EC50) in assay [3] was above 1 µM.
On to `CN(C)C1CN(C(=O)c2ccc(-c3cccc4nc(NC(=O)C5CC5)nn34)cc2)C1` [Compound 327, Cyclopropanecarboxylic acid {5-[4-(3-dimethylamino-azetidine-1-carbonyl)-phenyl]-[1,2,4]triazolo[1,5-a]pyridin-2-yl}-amide], for which the figures for the IC50 in assay [1] and in assay [2] were 0.101 to 0.5 µM and above 1 µM, respectively. Moreover, the EC50 in assay [3] is above 1 µM.
Take `CN(C)CC1CN(C(=O)c2ccc(-c3cccc4nc(NC(=O)C5CC5)nn34)cc2)C1` [Compound 329, Cyclopropanecarboxylic acid {5-[4-(3-dimethylaminomethyl-azetidine-1-carbonyl)-phenyl]-[1,2,4]triazolo[1,5-a]pyridin-2-yl}-amide]: the IC50 in assay [1] is 0.101 to 0.5 µM; in assay [2] it was above 1 µM. In assay [3], the EC50 was above 1 µM.
